Results published in the METLIN SMRT retention time set (Domingo-Almenara et al. 2019).

Test: gradient 5% acetonitrile 3 min, to 50% in 2 min, to 85% in 15 min, held 3 min, 100 µL/min
Details: column: Zorbax Extend-C18 2.1 x 50 mm; eluents: water / acetonitrile, 0.1% formic acid
Outline: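 A Zorbax Extend-C18 column (2.1 × 50 mm, 1.8 μm) run at 100 μL/min with water and acetonitrile, both containing 0.1% formic acid, separated mixtures of ~100 pure standards. The HPLC was coupled to a quadrupole time-of-flight mass spectrometer operated in positive and negative ionization mode, with dead and dwell volumes of 40 μL and 900 μL. Each retention time was taken from a computationally picked adduct peak that was then manually inspected.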

RP-LC retention time [s] | Structure (SMILES)
568 | Cc1sc2cc(C(=O)N3CCN(c4ccccn4)CC3)[nH]c2c1CN1CCOCC1
768 | O=C(NCc1ccc(Cl)cc1)c1ccc2c(c1)N(CC(=O)N1CCCC1)C(=O)CO2
638 | COc1ccc(-n2nc(C(=O)N3CCCCC3c3cccnc3)c(=O)n(C)c2=O)cc1 (configuration not stated)
886 | Cc1cc(-c2nnc(-c3ccccc3)o2)c(C)n1CC(=O)NC1CCCC1
1360 | Cc1cc(C)c(S(=O)(=O)N2CCCC2c2nc(-c3ccc(Cl)cc3)no2)c(C)c1 (configuration not stated)
818 | CC(NC(=O)c1cc2n(n1)CCCC2)c1ccc(F)cc1 (configuration not stated)
770 | Cc1cc(-c2nnc(-c3ccccc3)o2)c(C)n1CC(=O)NCC1CCCO1 (configuration not stated)
725 | CCN1CCCC1CNC(=O)c1nnc(-c2oc3c(C)cccc3c2C)o1 (configuration not stated)
797 | Cc1cc(NC(=O)C2CCc3nc(N4CCOCC4)ncc3C2)ccc1F (configuration not stated)
572 | NC(=O)C1CCN(C(=O)Cc2csc(NC(=O)c3ccco3)n2)CC1
770 | CCOC(=O)c1ccc(NC(=O)c2c(OCC)cc(=O)n3c2CCCC3)cc1
644 | Cc1ccccc1NC(=O)Cn1cnc2nc(N3CCCC(C(=O)NC4CC4)C3)sc2c1=O (configuration not stated)
720 | O=C(Nc1ccc2c(c1)OCCO2)NC1CCN(c2ccccc2)C1=O (configuration not stated)
884 | O=C1COc2ccc(-c3csc(NC(=O)C4CCCCC4)n3)cc2N1
794 | Cc1cc(C)c(C(=O)N2CCC(CC(=O)NCc3ccccc3C)CC2)[nH]1
781 | O=C(NCCCN1CCCC1=O)c1csc(N2CCN(c3ccccc3)CC2)n1
610 | CCOc1cc(=O)n2c(c1C(=O)NCC1CCCO1)CCCCC2 (configuration not stated)
1180 | Cc1c(-c2ccnc(N3CCCCC3)n2)cnc2nc(-c3ccccc3)nn12
1100 | CCOc1ccccc1NC(=O)N1CCCC1c1nc(-c2ccc(F)cc2F)no1 (configuration not stated)
561 | CCNC(=O)Nc1ccc(N2CCCCC2)nc1
750 | O=C(Cn1c(-c2cnccn2)nc2ccccc21)N1CCN(c2ccccc2F)CC1

Continued, compound first:

Structure (SMILES) | RP-LC retention time [s]
COC(=O)c1ccc(-c2nc3cnccn3c2Nc2ccccc2OC)cc1 | 893
CCOC(=O)c1ccc(NC(=O)NCC(c2cccnc2)c2cn(C)c3ccccc23)cc1 (configuration not stated) | 824
COc1cc(Nc2nc(C(=O)NCCN(C)C)cc3occc23)cc(OC)c1OC | 629
Cc1nnc2sc(SCc3ccc(C(F)(F)F)cc3)nn2c1=O | 801
Cc1ccc(-c2noc(-c3ccc(=O)n(CCC(C)C)n3)n2)cc1 | 1280
O=C(Nc1cccc(C(F)(F)F)c1)Nc1cc(Cl)ccc1C(=O)O | 1080
CCOc1ccc(NC(=O)N2CCC(C)(C(=O)NCc3ccc(F)cc3)CC2)cc1 | 796
CCOc1ccc(CNC(=O)CN2C(=O)CSc3cccn3-c3ccccc32)cc1 | 914
COc1ccc(OC)c(NS(=O)(=O)c2ccc(-c3nnc(C4CCC4)o3)o2)c1 | 893
COc1ncccc1CN(C)C(=O)COc1ccccc1 | 568
CCCN(C(=O)CC(=O)OCC)c1nc(-c2ccc(C)cc2)cs1 | 1250
COc1ccc2c(c1)C1CC(C)(NC(=O)C1S(=O)(=O)c1ccc(C(C)C)cc1)O2 (configuration not stated) | 1010
c1ccc(-c2cc(NCc3ccccn3)n3ncc(-c4ccccc4)c3n2)cc1 | 1180
CCn1c(=O)c(C(=O)NCc2cccc(F)c2)nc2cccnc21 | 797
Cc1cccc(NC(=O)Cn2nc3c(Oc4cccc(F)c4)nccn3c2=O)c1 | 864
COC(=O)c1cc(S(=O)(=O)N2CCCC2C(=O)Nc2ccc(C(C)C)cc2)cn1C (configuration not stated) | 1020
CC(C)(Oc1ccc(Cl)cc1)C(=O)Nc1ccc(-c2cn3cccnc3n2)cc1 | 794
Cc1nnc(C2CCCCCN2C(=O)Cc2c(C)noc2C)o1 (configuration not stated) | 658
CNC(=O)c1cc(=O)[nH]c2c(C)cccc12 | 588
CC(C)c1cc(C(=O)Nc2cccc(C(F)(F)F)c2)nn1C1CCS(=O)(=O)C1 (configuration not stated) | 1000
COc1ccc(Br)cc1CNC(=O)CCC(=O)N1CCSc2nc(C)cc(C)c21 | 725
COc1ccc(N2C(=O)C3N=NN(c4ccc(F)c(Cl)c4)C3C2=O)cc1 (configuration not stated) | 1010
Cc1nn(C(C)C(=O)NCCC(C)C)c(=O)c2c(C)n(-c3ccccc3)nc12 (configuration not stated) | 948

Structure (SMILES) | RP-LC retention time [s]
CC(=O)COc1cc(O)c2c(=O)cc(-c3ccccc3)oc2c1 | 938
CCCc1noc(-c2nc(-c3ccc(OC)c(OC)c3)no2)n1 | 1050
O=c1c(NCCC2=CCCCC2)nc2ccncc2n1Cc1ccccc1 | 818
Nc1nc(-c2ccccc2)nn1C(=O)c1ccccc1F | 862
COc1ccc(-c2noc(-c3nc(Cc4cccc(F)c4)no3)n2)cc1 | 1170
COc1ccc(-c2nnc3n2CCN(Cc2scnc2C)C3)cc1 | 657
O=C(NCc1cccnc1)C1c2ccccc2C(=O)N(C2CCCC2)C1c1cccs1 (configuration not stated) | 591
Cc1ccccc1-c1noc(Cn2cnc3c(oc4ccccc43)c2=O)n1 | 986
CCn1c(=O)n(CC)c2cc(S(=O)(=O)c3ccc(OC)cc3)c(NC(=O)C(C)C)cc21 | 836
CCOC(=O)c1ccccc1NC(=O)NCC(c1cccnc1)c1c[nH]c2ccccc12 (configuration not stated) | 756
CC1CCc2onc(C(=O)N(C)Cc3ccccc3)c2C1 (configuration not stated) | 1020
COc1ncc(C(=O)NCc2ccc(OC)c(OC)c2)cn1 | 638
CC1(C)C(=O)N(CC(=O)Nc2cccc(Br)c2)c2ccccc21 | 968
CN1CCN(CCCNC(=O)c2nccnc2NC(=O)c2ccccc2)CC1 | 557
COc1cccc(Cn2nc(-c3nc(-c4ccc(F)cc4)no3)ccc2=O)c1 | 1060
CCc1cc(-c2csc(S(=O)(=O)Nc3cc(C)cc(C)c3)c2)on1 | 1050
COc1ccc(C)cc1NC(=O)N1CCN(c2ccc(=O)n(-c3ccc(C)cc3)n2)CC1 | 915
COCC1(O)CCOC2(CCN(Cc3cc(C)ccc3C)CC2)C1 (configuration not stated) | 559
CC(C)CCNC(=O)c1c2c(cn(-c3ccccc3)c1=O)C(=O)CC(C)(C)C2 | 1030
CC1CCN(C(=O)CN2C(=O)CCCc3cc(S(=O)(=O)N4CCC(C)CC4)ccc32)CC1 | 987
Cc1nc2c(sc3nc(-c4ccccc4)ccc32)c(=O)n1CC(=O)NCc1ccc(Cl)cc1 | 1210
C=CCn1c(C)c(CC(=O)Nc2ccc(C)cc2)c(=O)n2nc(-c3ccc(C)cc3)nc12 | 991
O=C(Cn1cc(-c2ccc(F)cc2)oc1=O)N1CCN(c2cccc(Cl)c2)CC1 | 972
